Measurements as given in PubChem BioAssay AID815 (Emory University Molecular Libraries Screening Center, 2007).
Inconclusive results are not listed. Activity calls are given as the source filed them.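 The calls were made as follows: active = compounds whose half-maximal effective concentration EC50 against measles virus is under 10 µM; inactive = the rest, inconclusive results apart.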

Tested on: Vero cells, measles virus yield reduction, TCID50, 36 h
Assay: measles virus yield reduction and host cell toxicity, dose response, EC50 and CC50 (AID 815)
Conditions: for CC50: measured here: cytotoxicity, viable cells

Q: Nc1ccc(C(=O)Nc2ccc(S(=O)(=O)N3CCCC3)cc2)c(Cl)c1 was tested. Which EC50 did it give?
A: The EC50 was > 75 µM (inactive).

Q: What about the CC50 of the same compound?
A: Its CC50 is over 300 µM.

Q: What does the source list for O=C(Nc1ccc(S(=O)(=O)N2CCCC2)cc1)c1cc(C(F)(F)F)nn1Cc1ccccc1?
A: EC50: > 75 µM (inactive); CC50: 37 µM

Q: Which EC50 does the source give for O=C(Nc1ccc(S(=O)(=O)N2CCCC2)cc1)c1ccc(C(F)(F)F)cc1[N+](=O)[O-] here?
A: The EC50 was > 75 µM (inactive).

Q: And the CC50?
A: The CC50 was over 300 µM.

Q: How did the EC50 turn out when Cn1nc(C(F)(F)F)cc1C(=O)Nc1ccc(S(=O)(=O)N2CCCCC2C(=O)O)cc1 (stereo not drawn) was run?
A: Its EC50 is > 75 µM (inactive).

Q: And the CC50?
A: Its CC50 is over 300 µM.

Q: For Cn1nc(C(F)(F)F)cc1C(=O)Cc1ccc(S(=O)(=O)N2CCCC2)cc1, which EC50 is on record?
A: The EC50 was 15.5 µM (inactive).

Q: What about the CC50 of the same compound?
A: Its CC50 is over 300 µM.

Q: Which EC50 does the source give for O=C(Nc1ccc(S(=O)(=O)N2CCCC2)cc1)c1nc2ccccc2s1 here?
A: The EC50 was > 75 µM (inactive).

Q: And the CC50?
A: The CC50 was over 300 µM.

Q: Which results are given for O=C(Nc1ccc(S(=O)(=O)N2CCCC2)cc1)c1ccc(F)cc1?
A: EC50: > 75 µM (inactive); CC50: > 300 µM

Q: How did the EC50 turn out when Cn1nc(C(F)(F)F)cc1C(=O)Nc1ccc(S(=O)(=O)N2CCC[C@H]2C(=O)O)cc1 was run?
A: Its EC50 is 23 µM (inactive).

Q: What about the CC50 of the same compound?
A: The CC50 was over 300 µM.

Q: How did the EC50 turn out when O=C(Nc1ccc(S(=O)(=O)N2CCCC2)cc1)c1cccs1 was run?
A: Its EC50 is > 75 µM (inactive).

Q: What about the CC50 of the same compound?
A: The CC50 was over 300 µM.

Q: With O=C(Nc1ccc(S(=O)(=O)N2CCCC2)cc1)c1ccc([N+](=O)[O-])cc1Cl as the compound, how does the EC50 read?
A: The EC50 was > 75 µM (inactive).

Q: And the CC50?
A: Its CC50 is over 300 µM.

Q: Which results are given for O=C(Nc1ccc(S(=O)(=O)N2CCCC2)cc1)c1ccccc1C(F)(F)F?
A: EC50: > 75 µM (inactive); CC50: > 300 µM

Q: Which results are given for COc1ccc(Br)c(C(=O)Nc2ccc(S(=O)(=O)N3CCCC3)cc2)c1?
A: EC50: > 75 µM (inactive); CC50: > 300 µM

Q: With O=C(Nc1ccc(S(=O)(=O)N2CCCC2)cc1)c1ccc(C(F)(F)F)cc1 as the compound, how does the EC50 read?
A: Its EC50 is 48 µM (inactive).

Q: What about the CC50 of the same compound?
A: Its CC50 is over 300 µM.

Q: Which EC50 does the source give for Cn1nc(C(F)(F)F)cc1C(=O)Nc1ccc(S(=O)(=O)N2CCCC2)cc1O here?
A: The EC50 was > 75 µM (inactive).

Q: And the CC50?
A: Its CC50 is 288 µM.

Q: With Cn1nc(C(F)(F)F)cc1C(=O)Nc1ccc(S(=O)(=O)N2CCCC2)cc1N as the compound, how does the EC50 read?
A: The EC50 was > 75 µM (inactive).

Q: What about the CC50 of the same compound?
A: The CC50 was over 300 µM.

Q: What does the source list for Cn1nc(C(F)(F)F)cc1C(=O)Nc1ccc(S(=O)(=O)N2CCOCC2)cc1?
A: EC50: 43 µM (inactive); CC50: > 300 µM

Q: What does the source list for Cn1nc(C(F)(F)F)cc1C(O)Cc1ccc(S(=O)(=O)N2CCCC2)cc1 (stereo not drawn)?
A: EC50: 41 µM (inactive); CC50: > 300 µM

Q: With Cn1nc(C(F)(F)F)cc1C(=O)Nc1ccc(S(=O)(=O)N2CCNCC2)cc1 as the compound, how does the EC50 read?
A: The EC50 was 28 µM (inactive).

Q: And the CC50?
A: The CC50 was 126 µM.

Q: What does the source list for O=C(Nc1ccc(S(=O)(=O)N2CCCC2)cc1)c1nccn1-c1ccccc1C(F)(F)F?
A: EC50: 65 µM (inactive); CC50: > 300 µM

Q: Which EC50 does the source give for Cc1cc(C(=O)Nc2ccc(S(=O)(=O)N3CCCC3)cc2)n(C)n1 here?
A: The EC50 was > 75 µM (inactive).

Q: What about the CC50 of the same compound?
A: Its CC50 is over 300 µM.

Q: Which results are given for Cn1nc(C(C)(C)C)cc1C(=O)Nc1ccc(S(=O)(=O)N2CCCC2)cc1?
A: EC50: 25 µM (inactive); CC50: 140 µM

Q: How did the EC50 turn out when Cn1nc(C(F)(F)F)cc1C(=O)Nc1ccc(S(=O)(=O)N2CCC[C@H]2C(=O)OC(=O)c2ccccc2)cc1 was run?
A: The EC50 was 14 µM (inactive).

Q: And the CC50?
A: Its CC50 is 100 µM.

Q: Which EC50 does the source give for O=C(Nc1ccc(S(=O)(=O)N2CCCC2)cc1)c1cc(C(F)(F)F)ccc1F here?
A: The EC50 was > 75 µM (inactive).

Q: What about the CC50 of the same compound?
A: Its CC50 is 76 µM.

Q: Cc1nc(C(F)(F)F)ccc1C(=O)Nc1ccc(S(=O)(=O)N2CCCC2)cc1 was tested. Which EC50 did it give?
A: The EC50 was > 75 µM (inactive).

Q: What about the CC50 of the same compound?
A: The CC50 was over 300 µM.

Q: What does the source list for Cn1nc(C(F)(F)F)cc1COc1ccc(S(=O)(=O)N2CCCC2)cc1?
A: EC50: > 75 µM (inactive); CC50: > 300 µM

Q: Cc1cc(CNc2ccc(S(=O)(=O)N3CCCC3)cc2)n(C)n1 was tested. Which EC50 did it give?
A: The EC50 was > 75 µM (inactive).

Q: And the CC50?
A: The CC50 was over 300 µM.

Q: O=C(Nc1ccc(S(=O)(=O)N2CCCC2)cc1)c1ccco1 was tested. Which EC50 did it give?
A: The EC50 was > 75 µM (inactive).

Q: And the CC50?
A: Its CC50 is over 300 µM.

Q: Cn1nc(C(F)(F)F)cc1C(=O)Nc1ccc(S(=O)(=O)N2CCCCC2)cc1 was tested. Which EC50 did it give?
A: Its EC50 is under 2.3 µM.

Q: What about the CC50 of the same compound?
A: Its CC50 is over 300 µM.

Q: What does the source list for O=C(Nc1ccc(S(=O)(=O)N2CCCC2)cc1)c1cccc(C(F)(F)F)c1?
A: EC50: > 75 µM (inactive); CC50: > 300 µM
